Data from ChEMBL document CHEMBL5505993, “Identification of a ferritinophagy inducer via sinomenine modification for the treatment of colorectal cancer” (Eur J Med Chem, 2024).
Calls of active or inactive are those of the source. The calls are words filed in the database; no cut-off is given here.

Experiments:
[1] = system: HCT-116; assay: Antitumor activity against human HCT-116 cells xenografted in BALB/c mouse assessed as increase in LC3B expression at 60 mg/kg,ip administrated daily for 14 days by immunohistochemistry; assay type: functional, organism-based; settings: time 14.0 day
[2] = Toxicity in BALB/c mouse xenografted with human HCT-116 cells assessed as histopathological changes in heart at 60 mg/kg,ip administrated daily for 14 days by hematoxylin and eosin staining based microscopic analysis; assay type: organism-based; settings: in vivo, 336 h, time 14 day
[3] = system: HCT-116; assay: Antitumor activity against human HCT-116 cells xenografted in BALB/c mouse assessed as reduction in tumor volume at 60 mg/kg,ip administrated daily for 14 days; assay type: functional, organism-based; settings: time 14.0 day
[4] = system: HCT-116; assay: Induction of autophagy in human HCT-116 cells assessed as increase in intracellular ferrous ion level at 20 uM incubated for 12 hrs by Lyso tracker green staining based confocal microscopic analysis; assay type: functional, cell-based
[5] = Toxicity in BALB/c mouse xenografted with human HCT-116 cells assessed as histopathological changes in kidney at 30 mg/kg,ip administrated daily for 14 days by hematoxylin and eosin staining based microscopic analysis; assay type: organism-based; settings: in vivo, 336 h, time 14 day
[6] = system: HCT-116; assay: Cytotoxicity against human HCT-116 cells assessed as inhibition of cell growth incubated for 48 hrs by CCK-8 assay; assay type: functional, cell-based; settings: HCT-116, 48 h
[7] = system: HCT-116; assay: Induction of ferroptosis in human HCT-116 cells assessed as increase in intracellular lipid ROS accumulation at 5 to 20 uM incubated for 12 hrs by C11 BODIPY probe based fluorescence microscopic analysis; assay type: functional, cell-based; settings: dose 5-20 µM
[8] = Toxicity in BALB/c mouse xenografted with human HCT-116 cells assessed as histopathological changes in lung at 60 mg/kg,ip administrated daily for 14 days by hematoxylin and eosin staining based microscopic analysis; assay type: organism-based; settings: in vivo, 336 h, time 14 day
[9] = system: HCT-116; assay: Induction of ferroptosis in human HCT-116 cells assessed as increase in intracellular ferrous ion level incubated for 12 hrs by ferroOrange probe based confocal fluorescence microscopic analysis; assay type: functional, cell-based
[10] = system: HCT-116; assay: Antitumor activity against human HCT-116 cells xenografted in BALB/c mouse assessed as increase in LC3B expression at 30 mg/kg,ip administrated daily for 14 days by immunohistochemistry; assay type: functional, organism-based; settings: time 14.0 day
[11] = system: HCT-116; assay: Induction of ferroptosis in human HCT-116 cells assessed as effect on GPX4 protein expression at 5 to 20 uM incubated for 12 hrs by Western blotting analysis; assay type: functional, cell-based; settings: dose 5-20 µM
[12] = system: HCT-116; assay: Induction of autophagy in human HCT-116 cells transfected with mRFP-GFP-LC3B assessed as colocalization of lysosome with LC3B protein at 20 uM incubated for 12 hrs by Lyso tracker red staining based confocal fluorescence microscopic analysis; assay type: functional, cell-based
[13] = system: HCT-116; assay: Antitumor activity against human HCT-116 cells xenografted in BALB/c mouse assessed as reduction in tumor growth at 60 mg/kg,ip administrated daily for 14 days; assay type: functional, organism-based; settings: time 14.0 day
[14] = system: HCT-116; assay: Induction of ferroptosis in human HCT-116 cells assessed as increase in ferrous ion level in lysosomes at 20 uM incubated for 12 hrs by ferroOrange probe based confocal fluorescence microscopic analysis; assay type: functional, cell-based
[15] = system: HCT-116; assay: Inhibition of colony formation in human HCT-116 cells incubated for 12 hrs by crystal violet staining based analysis; assay type: functional, cell-based
[16] = system: HCT-116; assay: Antitumor activity against human HCT-116 cells xenografted in BALB/c mouse assessed as reduction in tumor density at 60 mg/kg,ip administrated daily for 14 days by hematoxylin and eosin staining based microscopic analysis; assay type: functional, organism-based; settings: time 14.0 day
[17] = system: HCT-116; assay: Antitumor activity against human HCT-116 cells xenografted in BALB/c mouse assessed as increase in 4-HNE level in tumor at 30 mg/kg,ip administrated daily for 14 days by ELISA; assay type: functional, organism-based; settings: time 14.0 day
[18] = system: HCT-116; assay: Induction of ferroptosis in human HCT-116 cells assessed as effect on GSH level at 5 to 20 uM incubated for 12 hrs; assay type: functional, cell-based; settings: dose 5-20 µM
[19] = system: HCT-116; assay: Antiproliferative activity against human HCT-116 cells assessed as reduction in number of EdU-positive cell at 5 to 20 uM incubated for 9 hrs by Edu staining based analysis; assay type: functional; settings: dose 5-20 µM
[20] = system: HCT-116; assay: Induction of ferroptosis in human HCT-116 cells assessed as increase in intracellular lipid ROS accumulation at 20 uM incubated for 12 hrs in presence of ferroptosis inhibitor, Ferrostatin-1 by C11 BODIPY probe based flow cytometry; assay type: functional, cell-based
[21] = Toxicity in BALB/c mouse xenografted with human HCT-116 cells assessed as histopathological changes in lung at 30 mg/kg,ip administrated daily for 14 days by hematoxylin and eosin staining based microscopic analysis; assay type: organism-based; settings: in vivo, 336 h, time 14 day
[22] = Toxicity in BALB/c mouse xenografted with human HCT-116 cells assessed as histopathological changes in liver at 30 mg/kg,ip administrated daily for 14 days by hematoxylin and eosin staining based microscopic analysis; assay type: organism-based; settings: in vivo, 336 h, time 14 day
[23] = system: HCT-116; assay: Antitumor activity against human HCT-116 cells xenografted in BALB/c mouse assessed as reduction in tumor weight at 60 mg/kg,ip administrated daily for 14 days; assay type: functional, organism-based; settings: time 14.0 day
[24] = system: HCT-116; assay: Induction of ferritin autophagy in human HCT-116 cells assessed as upregulation of FTH1 protein expression at 5 to 20 uM incubated for 12 hrs by Western blotting analysis; assay type: functional, cell-based; settings: dose 5-20 µM
[25] = Toxicity in BALB/c mouse xenografted with human HCT-116 cells assessed as histopathological changes in spleen at 60 mg/kg,ip administrated daily for 14 days by hematoxylin and eosin staining based microscopic analysis; assay type: organism-based; settings: in vivo, 336 h, time 14 day
[26] = system: HCT-116; assay: Induction of ferritin autophagy in human HCT-116 cells assessed as upregulation of NCOA4 protein expression at 20 uM incubated for 12 hrs by immunoprecipitation assay; assay type: functional, cell-based
[27] = system: HCT-116; assay: Induction of ferroptosis in human HCT-116 cells assessed as increase in intracellular lipid ROS accumulation at 5 to 20 uM incubated for 12 hrs by C11 BODIPY probe based flow cytometry; assay type: functional, cell-based; settings: dose 5-20 µM
[28] = system: HCT-116; assay: Antitumor activity against human HCT-116 cells xenografted in BALB/c mouse assessed as presence of pyknotic nucleus at 60 mg/kg,ip administrated daily for 14 days by hematoxylin and eosin staining based microscopic analysis; assay type: functional, organism-based; settings: time 14.0 day
[29] = system: HCT-116; assay: Induction of ferroptosis in human HCT-116 cells assessed as increase in ferrous ion level in lysosomes at 20 uM incubated for 12 hrs by Hoechst 33342 staining based confocal fluorescence microscopic analysis; assay type: functional, cell-based
[30] = system: HCT-116; assay: Induction of autophagy in human HCT-116 cells assessed as formation of autophagosomes at 20 uM incubated for 12 hrs in presence of Bafilomycin A1 by confocal microscopic analysis; assay type: functional, cell-based
[31] = Toxicity in BALB/c mouse xenografted with human HCT-116 cells assessed as histopathological changes in liver at 60 mg/kg,ip administrated daily for 14 days by hematoxylin and eosin staining based microscopic analysis; assay type: organism-based; settings: in vivo, 336 h, time 14 day
[32] = system: HCT-116; assay: Antitumor activity against human HCT-116 cells xenografted in BALB/c mouse assessed as tumor cell rupture at 60 mg/kg,ip administrated daily for 14 days by hematoxylin and eosin staining based microscopic analysis; assay type: functional, organism-based; settings: time 14.0 day
[33] = system: HCT-116; assay: Induction of ferroptosis in human HCT-116 cells assessed as effect on AIFM2 protein expression at 5 to 20 uM incubated for 12 hrs by Western blotting analysis; assay type: functional, cell-based; settings: dose 5-20 µM
[34] = system: HCT-116; assay: Antitumor activity against human HCT-116 cells xenografted in BALB/c mouse assessed as reduction in tumor weight at 30 mg/kg,ip administrated daily for 14 days; assay type: functional, organism-based; settings: time 14.0 day

C=C(Cl)C(=O)NCCCCCCCCCCCC(=O)Oc1c(OC)ccc2c1[C@@]13CCN(C)[C@@H](C2)[C@H]1C=C(OC)C(=O)C3
Activity [1]: Active
Activity [2]: Non-Toxic
Activity [3]: Active
Activity [4]: Active
Activity [5]: Non-Toxic
IC50 [6]: 5.87 µM
Activity [7]: Active
Activity [8]: Non-Toxic
Activity [9]: Dose-Dependent Effect
Activity [10]: Active
Activity [11]: inactive
Activity [12]: Active
Activity [13]: Active
Activity [14]: Active
inhibition [15]: Dose-Dependent Effect
Activity [16]: Active
Activity [17]: Active
Activity [18]: inactive
Activity [19]: Active
Activity [20]: Active
Activity [21]: Non-Toxic
Activity [22]: Non-Toxic
Activity [23]: Active
Activity [24]: Active
Activity [25]: Non-Toxic
Activity [26]: inactive
Activity [27]: Active
Activity [28]: Active
Activity [29]: Active
Activity [30]: inactive
Activity [31]: Non-Toxic
Activity [32]: Active
Activity [33]: inactive
Activity [34]: Active
